Assay results: patent US20110245249A1, “Heterocyclically Substituted Anilinopyrimidines” (Bayer CropScience AG, priority 2008, published 2011)

Test: logP by HPLC on reversed-phase columns (EEC Directive 79/831 Annex V.A8)
Type: physicochemical
Settings: for log p [a]: pH 2.3
Method: The logP values were measured in accordance with EEC Directive 79/831 Annex V.A8 by HPLC (High Performance Liquid Chromatography) on reversed-phase columns (C 18) using the methods below:
[a] The determination was carried out in the acidic range at pH 2.3 using the mobile phases 0.1% aqueous phosphoric acid and acetronitrile linear gradient from 10% acetonitrile to 95% acetronitrile. [b] The LC-MS determination in the acid range was carried out at pH 2.7 using the mobile phases 0.1% aqueous formic acid and acetonitrile (contains 0.1% formic acid) linear gradient from 10% acetonitrile to 95% acetonitrile. [c] The LC-MS determination in the neutral range was carried out at pH 7.8 using the mobile phases 0.001 molar aqueous ammonium bicarbonate solution and acetonitrile linear gradient from 10% acetonitrile to 95% acetonitrile.

## CC1(C)COC(c2cccc(Nc3ncc(C(F)(F)F)c(NC4CCC4)n3)c2)OC1 [Example 26]
pH 2.7
  log p [b]: 4.22
pH 7.8
  log p [c]: 4.62

## CC1OC(c2cccc(Nc3ncc(Cl)c(NC4CC4)n3)c2)OC(C)C1C (stereo not shown) [Example 98]
pH 2.7
  log p [b]: 2.77
pH 7.8
  log p [c]: 4.21

## CCCCOC(OCCCC)c1cccc(Nc2ncc(Cl)c(NC3CC3)n2)c1 [Example 66]
pH 2.7
  log p [b]: 4.64
  logP (pH 2.7): 4.64
pH 7.8
  log p [c]: 5.83

## CC1(C)COC(c2cccc(Nc3ncc(Cl)c(NC4CCC4)n3)c2)OC1 [Example 19]
  log p [a]: 2.29
pH 2.7
  log p [b]: 2.57[b]
pH 7.8
  log p [c]: 4.13

## CCCOCC1COC(c2cccc(Nc3ncc(Cl)c(NC4CC4)n3)c2)O1 (stereo not shown) [Example 96]
pH 2.7
  log p [b]: 2.51
pH 7.8
  log p [c]: 3.79

## CC(=O)c1cccc(Nc2ncc(Cl)c(NC3CC3)n2)c1 [1-(3-{[5-Chloro-4-(cyclopropylamino)pyrimidin-2-yl]amino}phenyl)ethanone]
pH 2.7, logP (pH 2.7)
  chromatographic logP: 1.75

## FC(F)CNc1nc(Nc2cccc(C3OCCCO3)c2)ncc1Cl [Example 52]
  log p [a]: 1.6
pH 2.7
  log p [b]: 1.97[b]
pH 7.8
  log p [c]: 2.68

## CC1CC1Nc1nc(Nc2cccc(C3OCCO3)c2)ncc1Br (stereo not shown) [Example 131]
pH 7.8
  log p: 3.33[c]

## CC(=O)c1cccc(Nc2ncc(C(F)(F)F)c(NC3CCC3)n2)c1 [1-(3-{[4-(Cyclobutylamino)-5-(trifluoromethyl)pyrimidin-2-yl]amino}phenyl)ethanone]
pH 2.7, logP (pH 2.7)
  chromatographic logP: 3.24

## CC1CC1Nc1nc(Nc2cccc(C3OCCCO3)c2)ncc1Br (stereo not shown) [Example 133]
pH 2.7
  log p: 2.18
pH 7.8
  log p: 3.53

## CCC(=O)c1cccc(Nc2ncc(Cl)c(NC3CC3)n2)c1 [1-(3-{[5-Chloro-4-(cyclopropylamino)pyrimidin-2-yl]amino}phenyl)propan-1-one]
pH 2.7, logP (pH 2.7)
  chromatographic logP: 2.25

## O=Cc1cccc(Nc2ncc(Cl)c(NC3CCC3)n2)c1 [3-{[5-Chloro-4-(cyclobutylamino)pyrimidin-2-yl]amino}benzenecarbaldehyde]
pH 2.7, logP (pH 2.7)
  chromatographic logP: 2.16

## CCC1(CO)COC(c2cccc(Nc3ncc(Cl)c(NC4CC4)n3)c2)OC1 (stereo not shown) [Example 159]
pH 2.7
  log p: 1.82
pH 7.8
  log p: 2.77

## Clc1cnc(Nc2cccc(C3SCCS3)c2)nc1NC1CC1 [Example 47]
pH 2.7
  log p [b]: 2.42
pH 7.8
  log p [c]: 3.68

## FC(F)(F)c1cnc(Nc2cccc(C3OCCCO3)c2)nc1NC1CC1 [Example 153]
pH 2.7
  log p: 2.71[b]

## Fc1ccc(Nc2ncc(C(F)(F)F)c(NC3CC3)n2)cc1C1OCCO1 [Example 143]
pH 2.7
  log p: 2.76
pH 7.8
  log p: 3.2

## CC1COC(c2cccc(Nc3ncc(C(F)(F)F)c(NC4CC4)n3)c2)O1 (stereo not shown) [Example 83]
  log p [a]: 2.44
pH 2.7
  log p [b]: 2.94[b]
pH 7.8
  log p [c]: 3.45

## Clc1cnc(Nc2cccc(C3OCC(Cl)CO3)c2)nc1NC1CC1 (stereo not shown) [Example 99]
pH 2.7
  log p [b]: 2.15
pH 7.8
  log p [c]: 3.33

## CC1(C)OC(c2cccc(Nc3ncc(Cl)c(NC4CC4)n3)c2)OC1(C)C [Example 158]
pH 2.7
  log p: 2.78
pH 7.8
  log p: 4.13

## Ic1cnc(Nc2cccc(C3OCCCO3)c2)nc1NC1CC1 [Example 57]
  log p [a]: 1.6
pH 2.7
  log p [b]: 2.23[b]
pH 7.8
  log p [c]: 3.18

## COC(OC)c1cccc(Nc2ncc(Cl)c(NC3CC3)n2)c1 [Example 63]
pH 2.7
  log p [b]: 1.87
pH 7.8
  log p [c]: 3.07

## Fc1ccc(Nc2ncc(Br)c(NC3CC3)n2)cc1C1OCCCO1 [Example 145]
pH 2.7
  log p: 2.01
pH 7.8
  log p: 3.16

## Clc1cnc(Nc2cccc(C3OCCCCO3)c2)nc1NC1CC1 [Example 126]
pH 2.7
  log p [b]: 2.14
pH 7.8
  log p [c]: 3.48

## OCC1COC(c2cccc(Nc3ncc(Cl)c(NC4CC4)n3)c2)O1 (stereo not shown) [Example 42]
pH 2.7
  log p [b]: 1.16
pH 7.8
  log p [c]: 1.96

## COCC1COC(c2cccc(Nc3ncc(Br)c(NC4CCC4)n3)c2)O1 (stereo not shown) [Example 115]
pH 2.7
  log p [b]: 2.19
pH 7.8
  log p [c]: 3.61

## CC1COC(c2cccc(Nc3ncc(C(F)(F)F)c(NC4CCC4)n3)c2)O1 (stereo not shown) [Example 87]
pH 2.7
  log p [b]: 3.51
pH 7.8
  log p [c]: 4.04

## CC(C)(C)OCC1COC(c2cccc(Nc3ncc(Cl)c(NC4CC4)n3)c2)O1 (stereo not shown) [Example 95]
pH 2.7
  log p [b]: 2.76
pH 7.8
  log p [c]: 4.08

## FC(F)(F)c1cnc(Nc2cccc(C3OC4COCC4O3)c2)nc1NC1CC1 (stereo not shown) [Example 111]
  log p [a]: 1.94
pH 7.8
  log p [c]: 2.87

## C=CCOCC1COC(c2cccc(Nc3ncc(Cl)c(NC4CC4)n3)c2)O1 (stereo not shown) [Example 34]
pH 2.7
  log p [b]: 2.25
pH 7.8
  log p [c]: 3.39

## CC1CSC(c2cccc(Nc3ncc(Cl)c(NC4CCC4)n3)c2)S1 (stereo not shown) [Example 163]
pH 2.7
  log p: 3.23
pH 7.8
  log p: 4.72

## C=CCOCC1COC(c2cccc(Nc3ncc(Br)c(NC4CC4)n3)c2)O1 (stereo not shown) [Example 107]
  log p [a]: 2.01
pH 2.7
  log p [b]: 2.43

## Clc1cnc(Nc2cccc(C3OCCS3)c2)nc1NC1CC1 (stereo not shown) [Example 46, 5-Chloro-N^4-cyclopropyl-N^2-[3-(1,3-oxathiolan-2-yl)phenyl]pyrimidine-2,4-diamine]
pH 2.7, log p [b]
  chromatographic logP: 2.05
pH 2.7, logP (pH 2.7)
  chromatographic logP: 2.05
pH 7.8, log p [c]
  chromatographic logP: 3.26

## O=Cc1cccc(Nc2ncc(C(F)(F)F)c(NC3CCC3)n2)c1 [3-{[4-(Cyclobutylamino)-5-(trifluoromethyl)pyrimidin-2-yl]amino}benzenecarbaldehyde]
pH 2.7, logP (pH 2.7)
  chromatographic logP: 3.26

## OCC1CSC(c2cccc(Nc3ncc(Cl)c(NC4CC4)n3)c2)S1 (stereo not shown) [Example 160]
pH 7.8
  log p: 2.72[c]

## COCC1COC(c2cccc(Nc3ncc(C(F)(F)F)c(NC4CC4C)n3)c2)O1 (stereo not shown) [Example 130]
pH 2.7
  log p: 3.18
pH 7.8
  log p: 3.7

## CC1CCC2OC(c3cccc(Nc4ncc(Cl)c(NC5CC5)n4)c3)OC12 (stereo not shown) [Example 157]
pH 2.7
  log p: 2.79
pH 7.8
  log p: 4.1

## Clc1cnc(Nc2cccc(C3OCCO3)c2)nc1NCC1CC1 [Example 18]
pH 2.7
  log p [b]: 1.73
pH 7.8
  log p [c]: 3.06

## CC1CC(C)OC(c2cccc(Nc3ncc(Cl)c(NC4CC4)n3)c2)O1 (stereo not shown) [Example 9]
pH 2.7
  log p [b]: 2.26
pH 7.8
  log p [c]: 3.51

## Brc1cnc(Nc2cccc(C3OCCCO3)c2)nc1NC1CC1 [Example 15]
pH 7.8
  log p [c]: 2.97

## O=Cc1cccc(Nc2ncc(Cl)c(NC3CC3)n2)c1 [3-{[5-Chloro-4-(cyclopropylamino)pyrimidin-2-yl]amino}benzenecarbaldehyde]
pH 2.7, logP (pH 2.7)
  chromatographic logP: 1.82
